ChEMBL document CHEMBL1201862, “PubChem BioAssay data set” (2004)
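Growth conditions: 96-well plates. Treatment: test compound, 48 hours, 5 concentrations. Analysis: linear interpolation between bracketing concentrations; unreached endpoints set to highest concentration. GI50 marks 50% less growth.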 Calls of active or inactive are those of the source. No stated cut-off is given here; in the data, active = GI50 up to about 1.1 µM and inactive = higher.

What was measured:
Test in all cases: NCI anticancer screen, dose series, 48 h
SF-539 = tested on: SF-539
ACHN = tested on: ACHN
NCI-H522 = tested on: NCI-H522
COLO 205 = tested on: COLO 205
HCC 2998 = tested on: HCC 2998
EKVX = tested on: EKVX
SNB-19 = tested on: SNB-19
LOX IMVI = tested on: LOX IMVI
OVCAR-3 = tested on: OVCAR-3
M14 = tested on: M14
SR = tested on: SR
786-0 = tested on: 786-0
SN12C = tested on: SN12C
UACC-62 = tested on: UACC-62
SK-MEL-28 = tested on: SK-MEL-28

SMILES	GI50 (SF-539)	GI50 (ACHN)	GI50 (NCI-H522)	GI50 (COLO 205)	GI50 (HCC 2998)	GI50 (EKVX)	GI50 (SNB-19)	GI50 (LOX IMVI)	GI50 (OVCAR-3)	GI50 (M14)	GI50 (SR)	GI50 (786-0)	GI50 (SN12C)	GI50 (UACC-62)	GI50 (SK-MEL-28)
C/C(=N\Nc1ccc([N+](=O)[O-])cc1)C(=O)N(C)Nc1ccccc1	76.4 µM (inactive)	35.4 µM (inactive)	52.8 µM (inactive)	58.3 µM (inactive)	33.8 µM (inactive)	34.5 µM (inactive)	> 100 µM (inactive)	64.4 µM (inactive)	43.9 µM (inactive)	43.2 µM (inactive)	47.8 µM (inactive)	> 100 µM (inactive)	74 µM (inactive)	45.2 µM (inactive)	–
CC12CCC[C@@](C)(C(=O)OC3OC(CO)C(O)C(O)C3O)[C@H]1CCC13CC4CC(OC4(CO)[C@H]1O)[C@@H]23 (some centres undefined)	> 100 µM (inactive)	> 100 µM (inactive)	> 100 µM (inactive)	–	> 100 µM (inactive)	> 100 µM (inactive)	> 100 µM (inactive)	–	> 100 µM (inactive)	> 100 µM (inactive)	> 100 µM (inactive)	> 100 µM (inactive)	> 100 µM (inactive)	> 100 µM (inactive)	> 100 µM (inactive)
NC(=O)c1c2c(cc3c(=O)c4ccccc4[nH]c13)CCCC2	> 100 µM (inactive)	> 100 µM (inactive)	> 100 µM (inactive)	> 100 µM (inactive)	> 100 µM (inactive)	> 100 µM (inactive)	> 71.4 µM (inactive)	> 100 µM (inactive)	> 100 µM (inactive)	> 100 µM (inactive)	> 100 µM (inactive)	> 69.3 µM (inactive)	> 100 µM (inactive)	> 100 µM (inactive)	> 100 µM (inactive)
CC1CC2C3CC(F)C4=CC(=O)C=CC4(C)C3(F)C(O)CC2(C)C1(O)C(=O)CO (centres undefined)	> 100 µM (inactive)	> 100 µM (inactive)	> 100 µM (inactive)	> 100 µM (inactive)	> 100 µM (inactive)	> 100 µM (inactive)	> 100 µM (inactive)	> 100 µM (inactive)	> 100 µM (inactive)	> 100 µM (inactive)	> 100 µM (inactive)	> 100 µM (inactive)	–	> 100 µM (inactive)	> 100 µM (inactive)
N#CC(C(=O)CCC(=O)C(C#N)c1ccccc1)c1ccccc1 (centres undefined)	> 100 µM (inactive)	> 100 µM (inactive)	> 100 µM (inactive)	> 100 µM (inactive)	> 100 µM (inactive)	> 100 µM (inactive)	> 100 µM (inactive)	> 100 µM (inactive)	> 100 µM (inactive)	> 100 µM (inactive)	> 100 µM (inactive)	> 100 µM (inactive)	> 100 µM (inactive)	> 100 µM (inactive)	> 100 µM (inactive)
CC(=O)NC1=C(NCCC(C)C)C(=O)c2ccccc2C1=O	> 50 µM (inactive)	0.0301 µM (active)	> 50 µM (inactive)	> 50 µM (inactive)	> 50 µM (inactive)	> 50 µM (inactive)	> 50 µM (inactive)	> 50 µM (inactive)	> 50 µM (inactive)	> 50 µM (inactive)	> 50 µM (inactive)	> 50 µM (inactive)	> 50 µM (inactive)	> 50 µM (inactive)	> 50 µM (inactive)
COC1(OC)CCCCC2c3cccc(OC(C)=O)c3C21OC(C)=O (centres undefined)	> 100 µM (inactive)	78.9 µM (inactive)	> 100 µM (inactive)	> 100 µM (inactive)	> 100 µM (inactive)	> 100 µM (inactive)	> 100 µM (inactive)	> 100 µM (inactive)	94 µM (inactive)	> 100 µM (inactive)	59.2 µM (inactive)	> 100 µM (inactive)	> 100 µM (inactive)	> 100 µM (inactive)	> 100 µM (inactive)
COC(=O)C1=CC2OC1(C)C1(CC1)C2=O (centres undefined)	17.6 µM (inactive)	15.3 µM (inactive)	5.73 µM (inactive)	13.5 µM (inactive)	18.3 µM (inactive)	15.2 µM (inactive)	> 100 µM (inactive)	14 µM (inactive)	16.2 µM (inactive)	13.5 µM (inactive)	10.3 µM (inactive)	17.2 µM (inactive)	16.6 µM (inactive)	–	–
CN(C)CCNc1ccc2ncn3c4ccccc4c(=O)c1c23	3.62 µM (inactive)	1.26 µM (inactive)	1.29 µM (inactive)	0.94 µM (active)	–	–	7.96 µM (inactive)	1.15 µM (inactive)	7.76 µM (inactive)	3.11 µM (inactive)	0.822 µM (active)	2.03 µM (inactive)	2.9 µM (inactive)	3.22 µM (inactive)	3.93 µM (inactive)
NC(=S)N/N=C1\CCCC\C1=C/c1ccccc1	93.8 µM (inactive)	> 100 µM (inactive)	18.7 µM (inactive)	65.6 µM (inactive)	> 100 µM (inactive)	99.8 µM (inactive)	> 100 µM (inactive)	> 100 µM (inactive)	39.1 µM (inactive)	91 µM (inactive)	–	63.8 µM (inactive)	39.5 µM (inactive)	57.7 µM (inactive)	> 100 µM (inactive)
COC(=O)C1C(=O)N(CCc2c[nH]c3ccccc23)C[C@@H]2CCC(=O)C[C@H]12 (some centres undefined)	> 100 µM (inactive)	–	> 100 µM (inactive)	> 100 µM (inactive)	> 100 µM (inactive)	> 100 µM (inactive)	> 100 µM (inactive)	> 100 µM (inactive)	> 100 µM (inactive)	> 100 µM (inactive)	–	> 100 µM (inactive)	> 100 µM (inactive)	> 100 µM (inactive)	> 100 µM (inactive)
COC(=O)C(Cc1nc2ccccc2nc1O)C(NO)C(=O)Nc1c(Cl)cc([N+](=O)[O-])cc1Cl (centres undefined)	22.8 µM (inactive)	35.6 µM (inactive)	15.5 µM (inactive)	46.2 µM (inactive)	59.6 µM (inactive)	27.7 µM (inactive)	40.1 µM (inactive)	–	40.6 µM (inactive)	50.1 µM (inactive)	31.3 µM (inactive)	40.6 µM (inactive)	45.3 µM (inactive)	18 µM (inactive)	30.9 µM (inactive)
COc1ccc(/C=c2/sc3n(c2=O)NC2(CCCCC2)NN=3)cc1	> 100 µM (inactive)	–	> 100 µM (inactive)	> 100 µM (inactive)	> 100 µM (inactive)	> 100 µM (inactive)	> 100 µM (inactive)	> 100 µM (inactive)	> 100 µM (inactive)	> 100 µM (inactive)	> 100 µM (inactive)	> 100 µM (inactive)	> 100 µM (inactive)	> 100 µM (inactive)	> 100 µM (inactive)
CCOC(=O)C1N(S(=O)(=O)c2ccc(C)cc2)CCC12c1ccccc1N(C(C)=O)C2C(/C=C/C(=O)OC)=C/C(=O)OC (centres undefined)	> 100 µM (inactive)	> 100 µM (inactive)	> 100 µM (inactive)	> 100 µM (inactive)	> 100 µM (inactive)	> 100 µM (inactive)	> 100 µM (inactive)	> 100 µM (inactive)	> 100 µM (inactive)	> 100 µM (inactive)	–	> 100 µM (inactive)	> 100 µM (inactive)	> 100 µM (inactive)	> 100 µM (inactive)
CCOc1ccccc1NC(=O)C(=O)CC(=O)c1c(C)[n+]([O-])c2ccccc2[n+]1[O-]	> 100 µM (inactive)	> 100 µM (inactive)	84.5 µM (inactive)	35.2 µM (inactive)	> 100 µM (inactive)	> 100 µM (inactive)	69.2 µM (inactive)	99.3 µM (inactive)	25.2 µM (inactive)	> 100 µM (inactive)	–	> 100 µM (inactive)	> 100 µM (inactive)	> 100 µM (inactive)	> 100 µM (inactive)
CC1(C)CC(=O)C(=[N+]=[N-])C(=O)C1	> 100 µM (inactive)	> 100 µM (inactive)	> 100 µM (inactive)	> 100 µM (inactive)	> 100 µM (inactive)	> 100 µM (inactive)	> 100 µM (inactive)	> 100 µM (inactive)	> 100 µM (inactive)	> 100 µM (inactive)	–	> 100 µM (inactive)	> 100 µM (inactive)	> 100 µM (inactive)	> 100 µM (inactive)
CCOC(=O)C(C)(C)Oc1ccc2c(=O)cc(-c3ccccc3)oc2c1	20.2 µM (inactive)	54.7 µM (inactive)	13.9 µM (inactive)	19.6 µM (inactive)	> 100 µM (inactive)	31.9 µM (inactive)	18.8 µM (inactive)	17.5 µM (inactive)	19.5 µM (inactive)	19.5 µM (inactive)	–	16.3 µM (inactive)	32.1 µM (inactive)	18.2 µM (inactive)	16.7 µM (inactive)
O=C(CCC(=O)C1Cc2ccccc2C1=O)Nc1cccc(C(F)(F)F)c1 (centres undefined)	> 100 µM (inactive)	> 100 µM (inactive)	–	> 100 µM (inactive)	> 100 µM (inactive)	> 100 µM (inactive)	> 100 µM (inactive)	> 100 µM (inactive)	> 100 µM (inactive)	> 100 µM (inactive)	–	> 100 µM (inactive)	> 100 µM (inactive)	> 100 µM (inactive)	> 10 µM (inactive)
N#Cc1ccc(OCCSCCCCCCCCCCSCCOc2ccc(C#N)cc2)cc1	> 100 µM (inactive)	> 100 µM (inactive)	29.6 µM (inactive)	> 100 µM (inactive)	> 100 µM (inactive)	> 100 µM (inactive)	–	> 100 µM (inactive)	> 100 µM (inactive)	> 100 µM (inactive)	–	> 100 µM (inactive)	> 100 µM (inactive)	> 100 µM (inactive)	> 100 µM (inactive)
